Assay results published in patent US9481688B2, “(Thieno[2,3-b][1,5]benzoxazepin-4-yl)piperazin-1-yl compounds as dual activity H1 inverse agonists/5-HT2A antagonists” (Eli Lilly and Company, priority 2011, dated 2016).
Counter-ions that a name gives are not always drawn.

How the values were obtained:
[1] = target: human recombinant H1 receptor (Homo sapiens (Human), UniProt P35367); test: H1 competition binding assay ([3H]-Pyrilamine, SPA); conditions: dihydrochloride
Procedure: [^3H]-Pyrilamine binding experiments are carried out in SPA (scintillation proximity assay) 96-well format. Membranes used in this assay are prepared from HEK-293 cells stably expressing recombinant H1 receptor (human). The incubation is initiated by the addition of a mixture of WGA PVT SPA beads (1 mg/well, Perkin Elmer (MA, USA) RPNQ0001) and 3 μg membranes to assay buffer (67 mM Tris; pH 7.6) containing 3.5 nM [^3H]-Pyrilamine and varying concentrations of the test compound (10 point concentration response curves). Non-specific binding is determined in the presence of 10 μM Triprolidine. Samples are incubated for 4 hr. at room temperature (22° C.) and then read in a Microbeta Trilux.
Curves are evaluated using a 4-parameter logistic nonlinear equation to obtain the concentration of competitor causing 50% inhibition of radioligand binding (IC50). Equilibrium dissociation constants (Ki) are calculated according to the equation Ki=IC50/(1+L/Kd), where L equals the concentration of radioligand used in the experiment and Kd equals the equilibrium dissociation constant of the radioligand for the receptor, determined from standard saturation analysis or homologous competition experiments. Reported values for Ki, where n values are indicated, are shown as geometric mean±the standard error of the mean (SEM), with the number of replicate determinations indicated by n. […]

hERG channel = hERG channel (Homo sapiens (Human), UniProt Q12809); test: hERG channel assay
Sequence of hERG channel (Q12809 whole entry): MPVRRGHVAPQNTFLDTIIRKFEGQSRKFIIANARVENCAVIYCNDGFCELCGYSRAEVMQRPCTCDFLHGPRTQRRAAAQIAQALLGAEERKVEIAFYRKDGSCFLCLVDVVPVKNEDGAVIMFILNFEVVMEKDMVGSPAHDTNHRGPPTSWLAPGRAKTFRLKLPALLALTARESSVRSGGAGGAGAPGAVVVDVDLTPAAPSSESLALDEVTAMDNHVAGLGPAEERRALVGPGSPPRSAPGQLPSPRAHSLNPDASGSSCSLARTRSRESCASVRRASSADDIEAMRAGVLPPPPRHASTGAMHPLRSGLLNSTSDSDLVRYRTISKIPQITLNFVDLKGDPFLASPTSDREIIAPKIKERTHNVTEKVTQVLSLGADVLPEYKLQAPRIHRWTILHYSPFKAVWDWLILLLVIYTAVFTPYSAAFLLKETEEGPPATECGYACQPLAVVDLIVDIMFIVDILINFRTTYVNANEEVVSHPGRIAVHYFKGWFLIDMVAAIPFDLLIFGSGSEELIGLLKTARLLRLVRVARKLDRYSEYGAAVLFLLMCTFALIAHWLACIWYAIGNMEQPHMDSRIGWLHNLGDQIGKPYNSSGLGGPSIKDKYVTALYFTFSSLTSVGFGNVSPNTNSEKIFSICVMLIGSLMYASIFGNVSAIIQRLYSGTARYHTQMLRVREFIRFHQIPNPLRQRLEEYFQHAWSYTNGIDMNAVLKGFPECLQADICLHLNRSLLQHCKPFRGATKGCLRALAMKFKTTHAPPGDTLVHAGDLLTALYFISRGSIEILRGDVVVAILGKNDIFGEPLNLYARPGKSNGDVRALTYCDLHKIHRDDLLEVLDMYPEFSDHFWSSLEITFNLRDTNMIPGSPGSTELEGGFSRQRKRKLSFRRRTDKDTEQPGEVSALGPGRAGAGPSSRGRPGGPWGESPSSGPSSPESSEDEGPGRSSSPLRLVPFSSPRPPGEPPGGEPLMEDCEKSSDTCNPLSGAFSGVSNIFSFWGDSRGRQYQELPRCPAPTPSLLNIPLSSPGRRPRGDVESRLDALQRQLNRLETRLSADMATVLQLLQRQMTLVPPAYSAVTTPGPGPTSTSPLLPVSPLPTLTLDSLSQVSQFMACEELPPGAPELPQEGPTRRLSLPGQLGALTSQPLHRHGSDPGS
Text: (§1) Further, the compounds of the invention may be tested in binding assays and functional activity assays by well known methods for other physiologically important receptors such as, but not limited to, the hERG channel, other serotonin receptors (specifically 5-HT1B, 5-HT1D, receptors, lack of agonist activity at 5-HT2B receptors, 5-HT2C, 5-HT5, 5-HT6, and 5-HT7 receptors), dopaminergic receptors (specifically D1, D2, and D3), GABAA receptors, adrenergic receptors and monoamine transporters.

5-HT2A receptor [2] = target: 5-HT2A receptor (Mus musculus (Mouse), UniProt P35363); test: Inhibition of DOI induced headshake activity; assay type: in vivo; conditions: 10 mg/kg PO, mice, 60 min. pre-treatment, read-out: inhibition of DOI induced headshake response
Text: (§2) J Neurosci Methods. […] Recording Environment. […] Relative humidity averages approximately 50%. […] Study Design and Dosing. […] Data Collection. […] Statistical Analysis.

Adrenergic alpha1A = Adrenergic alpha1A (Homo sapiens (Human), UniProt P35348); test: Adrenergic alpha1A binding
Sequence of Adrenergic alpha1A (P35348 whole entry): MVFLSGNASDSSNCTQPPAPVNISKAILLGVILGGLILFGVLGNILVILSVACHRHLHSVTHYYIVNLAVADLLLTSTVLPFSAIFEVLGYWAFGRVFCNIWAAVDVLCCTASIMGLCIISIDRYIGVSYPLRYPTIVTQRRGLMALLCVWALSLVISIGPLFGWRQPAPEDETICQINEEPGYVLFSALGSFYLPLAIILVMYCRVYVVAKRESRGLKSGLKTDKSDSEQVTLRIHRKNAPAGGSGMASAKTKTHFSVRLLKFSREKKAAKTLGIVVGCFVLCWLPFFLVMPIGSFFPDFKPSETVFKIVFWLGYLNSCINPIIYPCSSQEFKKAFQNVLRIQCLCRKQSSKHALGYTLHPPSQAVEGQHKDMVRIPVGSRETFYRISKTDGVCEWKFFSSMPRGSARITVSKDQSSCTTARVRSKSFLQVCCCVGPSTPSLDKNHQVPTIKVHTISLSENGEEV
Text: as §1

Dopamine D3 = Dopamine D3 (Homo sapiens (Human), UniProt P35462); test: Dopamine D3 binding; conditions: dihydrochloride
Sequence of Dopamine D3 (P35462 whole entry): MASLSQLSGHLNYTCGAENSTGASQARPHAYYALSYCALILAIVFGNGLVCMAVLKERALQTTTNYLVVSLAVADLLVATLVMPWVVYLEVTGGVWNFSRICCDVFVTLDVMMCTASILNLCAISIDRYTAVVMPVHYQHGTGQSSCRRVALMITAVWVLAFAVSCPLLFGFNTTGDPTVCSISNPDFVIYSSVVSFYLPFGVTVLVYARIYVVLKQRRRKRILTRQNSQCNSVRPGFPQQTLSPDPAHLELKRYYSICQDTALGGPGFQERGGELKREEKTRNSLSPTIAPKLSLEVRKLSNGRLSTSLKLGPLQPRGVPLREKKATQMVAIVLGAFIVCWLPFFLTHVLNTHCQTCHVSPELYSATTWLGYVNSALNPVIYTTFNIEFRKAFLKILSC
Text: as §1

5-HT7 = 5-HT7 (Homo sapiens (Human), UniProt P34969); test: 5-HT7 binding
Sequence of 5-HT7 (P34969 whole entry, species assumed): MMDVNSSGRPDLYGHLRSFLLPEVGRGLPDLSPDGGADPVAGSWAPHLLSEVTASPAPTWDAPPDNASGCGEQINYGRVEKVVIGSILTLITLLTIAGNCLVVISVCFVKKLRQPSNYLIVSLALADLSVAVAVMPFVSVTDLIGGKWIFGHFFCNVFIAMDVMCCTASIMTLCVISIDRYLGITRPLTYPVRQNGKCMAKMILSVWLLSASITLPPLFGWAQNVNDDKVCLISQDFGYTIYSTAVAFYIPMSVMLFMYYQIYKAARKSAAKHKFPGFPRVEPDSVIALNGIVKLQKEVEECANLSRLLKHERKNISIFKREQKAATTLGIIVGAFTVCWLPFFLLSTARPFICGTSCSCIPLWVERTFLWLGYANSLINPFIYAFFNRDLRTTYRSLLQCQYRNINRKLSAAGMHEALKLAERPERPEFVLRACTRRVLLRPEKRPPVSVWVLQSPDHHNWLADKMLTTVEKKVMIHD
Text: as §1

5-HT2A Receptor [3] = target: 5-HT2A Receptor (Rattus norvegicus (Rat), UniProt P14842); test: 5-HT2A receptor occupancy in vivo (MDL 100907 tracer); conditions: oral gavage, 1 hr. before tracer
Text: as §2

5-HT1B = 5-HT1B (Homo sapiens (Human), UniProt P28222); test: 5-HT1B binding
Sequence of 5-HT1B (P28222 whole entry, species assumed): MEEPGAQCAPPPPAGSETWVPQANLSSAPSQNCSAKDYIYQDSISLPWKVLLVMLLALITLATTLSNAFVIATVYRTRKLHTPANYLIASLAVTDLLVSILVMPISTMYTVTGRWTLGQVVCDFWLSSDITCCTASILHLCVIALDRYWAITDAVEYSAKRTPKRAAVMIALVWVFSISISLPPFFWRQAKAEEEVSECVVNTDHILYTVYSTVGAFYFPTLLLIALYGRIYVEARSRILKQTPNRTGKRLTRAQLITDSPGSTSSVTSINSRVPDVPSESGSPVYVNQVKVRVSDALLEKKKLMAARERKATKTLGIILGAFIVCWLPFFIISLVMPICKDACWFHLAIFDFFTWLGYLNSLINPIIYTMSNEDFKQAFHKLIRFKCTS
Text: as §1

[4] = target: recombinant 5-HT2C receptor (human) (Homo sapiens (Human), UniProt P28335); test: 5-HT2C competition binding assay ([125I]-DOI, SPA); conditions: dihydrochloride
Sequence of recombinant 5-HT2C receptor (human) (P28335 whole entry, looked up): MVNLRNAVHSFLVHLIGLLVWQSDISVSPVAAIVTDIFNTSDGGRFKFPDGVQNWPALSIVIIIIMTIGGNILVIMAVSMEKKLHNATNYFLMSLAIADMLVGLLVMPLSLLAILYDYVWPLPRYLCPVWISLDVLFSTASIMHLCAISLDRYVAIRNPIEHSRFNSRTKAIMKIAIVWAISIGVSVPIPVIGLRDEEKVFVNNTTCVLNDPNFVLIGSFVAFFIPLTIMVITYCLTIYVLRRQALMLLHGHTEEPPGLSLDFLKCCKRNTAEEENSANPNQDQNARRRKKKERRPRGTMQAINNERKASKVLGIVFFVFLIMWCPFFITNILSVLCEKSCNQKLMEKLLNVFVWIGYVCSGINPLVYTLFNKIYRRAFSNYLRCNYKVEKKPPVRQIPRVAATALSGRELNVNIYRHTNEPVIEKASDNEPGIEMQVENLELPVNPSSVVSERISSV
Procedure: [^125I]-(±)DOI binding experiments are carried out in SPA 96-well format. Membranes used in this assay are prepared from AV-12 cells stably expressing recombinant 5-HT2C receptor (human). The incubation is initiated by the addition of a mixture of WGA PVT SPA beads (0.5 mg/well, Perkin Elmer (MA, USA), RPNQ0001) and 2.5 μg membranes to assay buffer (50 mM Tris-HCl, 10 mM MgCl2, 0.5 mM EDTA, 10 μM pargyline, 0.1% ascorbic acid, pH7.4) containing 0.2 nM [[^125I]-(±)DOI and varying concentrations of the test compound (10 point concentration response curves). Non-specific binding is determined in the presence of 20 μM 1-(1-Naphthyl) piperazine. Samples are incubated for 4 hr. at room temperature (22° C.) and then read in a Microbeta Trilux.
Curves are evaluated using a 4-parameter logistic nonlinear equation to obtain the concentration of competitor causing 50% inhibition of radioligand binding (IC50). Equilibrium dissociation constants (Ki) are calculated according to the equation Ki=IC50/(1+L/Kd), where L equals the concentration of radioligand used in the experiment and Kd equals the equilibrium dissociation constant of the radioligand for the receptor, determined from standard saturation analysis or homologous competition experiments. […]

Wistar rats = test: Sleep and behavioral monitoring in rats (EEG, EMG, motion); conditions: for Rebound Insomnia, Adj. Mean: NREM + REM sleep in 7th-9th hours post-treatment; for Rebound Insomnia, Adj. Mean / REM inhibition, Adj. Mean / Cumulative NREM sleep, Adj. Mean / Cumulative Total sleep, Adj. Mean / Locomotor Activity Intensity, Adj. Mean: difference from vehicle; for REM inhibition, Adj. Mean: REM sleep in first 12 hr. post-treatment; for Average Sleep Bout, Adj. Mean / Longest Sleep Bout, Adj. Mean / Cumulative NREM sleep, Adj. Mean / Cumulative Total sleep, Adj. Mean / Locomotor Activity Intensity, Adj. Mean: first 6 hr. post-treatment
5-HT2B [5] = target: T1, 5-HT2B (Homo sapiens (Human), UniProt P41595); test: 5-HT2B agonist functional activity; assay type: biochemical
T1 sequence (P41595 whole entry, species assumed): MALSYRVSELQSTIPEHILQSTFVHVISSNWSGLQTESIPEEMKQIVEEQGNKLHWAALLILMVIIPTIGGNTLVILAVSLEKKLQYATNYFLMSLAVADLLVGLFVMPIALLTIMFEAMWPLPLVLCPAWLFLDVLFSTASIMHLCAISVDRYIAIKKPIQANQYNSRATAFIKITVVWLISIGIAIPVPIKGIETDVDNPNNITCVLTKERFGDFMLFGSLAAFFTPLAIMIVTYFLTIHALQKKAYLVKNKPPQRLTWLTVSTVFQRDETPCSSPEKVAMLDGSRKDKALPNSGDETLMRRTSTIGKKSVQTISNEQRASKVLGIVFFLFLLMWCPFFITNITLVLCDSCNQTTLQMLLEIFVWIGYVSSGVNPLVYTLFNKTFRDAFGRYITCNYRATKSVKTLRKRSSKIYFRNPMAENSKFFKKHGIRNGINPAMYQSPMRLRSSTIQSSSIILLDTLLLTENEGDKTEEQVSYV
Text: as §1

5-HT2B [6] = target: T1, 5-HT2B; test: 5-HT2B antagonist functional activity; assay type: biochemical
Text: as §1

[7] = rat, PO, 6 hr. after treatment, 4 parameter logistic regression

Sequence of human recombinant H1 receptor (P35367 whole entry): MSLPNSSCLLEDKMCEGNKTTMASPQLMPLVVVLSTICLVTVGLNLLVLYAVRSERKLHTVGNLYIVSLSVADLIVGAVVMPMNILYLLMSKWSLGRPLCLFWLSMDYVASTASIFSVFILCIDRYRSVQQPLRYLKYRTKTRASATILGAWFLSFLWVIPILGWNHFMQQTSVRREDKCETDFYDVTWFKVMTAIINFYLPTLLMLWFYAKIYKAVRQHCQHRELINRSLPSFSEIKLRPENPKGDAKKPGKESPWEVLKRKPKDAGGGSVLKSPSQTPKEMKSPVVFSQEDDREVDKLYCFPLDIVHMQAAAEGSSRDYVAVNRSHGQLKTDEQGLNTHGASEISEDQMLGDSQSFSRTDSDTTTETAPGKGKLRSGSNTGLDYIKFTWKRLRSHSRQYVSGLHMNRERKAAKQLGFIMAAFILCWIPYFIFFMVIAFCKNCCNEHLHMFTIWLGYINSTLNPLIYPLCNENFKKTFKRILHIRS

Cc1ccc2c(c1)Oc1sc(Cl)cc1C(N1CCN(CC(C)(C)C(=O)O)CC1)=N2 [Example 3, 3-[4-(2-chloro-8-methyl-thieno[2,3-b][1,5]benzoxazepin-4-yl)piperazin-1-yl]-2,2-dimethyl-propanoic acid dihydrochloride]
Ki [1]: 0.0588 µM
hERG Channel (hERG channel): >100 µM
inhibition at 10 mg/kg (5-HT2A receptor [2]): 100%
Ki (Adrenergic alpha1A): > 10.2 µM
Ki (Dopamine D3): > 5.68 µM
Ki (5-HT7): > 2.06 µM
ED50 (5-HT2A Receptor [3]): 0.09 mg/kg
Ki (5-HT1B): > 5.58 µM
Ki [4]: 0.328 µM
Rebound Insomnia, Adj. Mean (Wistar rats; 0.025 mg/kg PO): 1.4 min
REM inhibition, Adj. Mean (Wistar rats; 0.025 mg/kg PO): 0.5 min
Average Sleep Bout, Adj. Mean (Wistar rats; 0.025 mg/kg PO): 1.2 n-fold increase over vehicle controls
Longest Sleep Bout, Adj. Mean (Wistar rats; 0.025 mg/kg PO): 1.1 n-fold increase over vehicle controls
Cumulative NREM sleep, Adj. Mean (Wistar rats; 0.025 mg/kg PO): 6.5 min
Cumulative Total sleep, Adj. Mean (Wistar rats; 0.025 mg/kg PO): 7.7 min
Locomotor Activity Intensity, Adj. Mean (Wistar rats; 0.025 mg/kg PO): 0.2 LMA counts per minute of EEG-defined wakefulness
Rebound Insomnia, Adj. Mean (Wistar rats; 0.035 mg/kg PO): 1.3 min
REM inhibition, Adj. Mean (Wistar rats; 0.035 mg/kg PO): -1.8 min
Average Sleep Bout, Adj. Mean (Wistar rats; 0.035 mg/kg PO): 1.3 n-fold increase over vehicle controls
Longest Sleep Bout, Adj. Mean (Wistar rats; 0.035 mg/kg PO): 1.1 n-fold increase over vehicle controls
Cumulative NREM sleep, Adj. Mean (Wistar rats; 0.035 mg/kg PO): 19.2 min
Cumulative Total sleep, Adj. Mean (Wistar rats; 0.035 mg/kg PO): 18.9 min
Locomotor Activity Intensity, Adj. Mean (Wistar rats; 0.035 mg/kg PO): 0.2 LMA counts per minute of EEG-defined wakefulness
Rebound Insomnia, Adj. Mean (Wistar rats; 0.05 mg/kg PO): 0.2 min
REM inhibition, Adj. Mean (Wistar rats; 0.05 mg/kg PO): 4.2 min
Average Sleep Bout, Adj. Mean (Wistar rats; 0.05 mg/kg PO): 1.6 n-fold increase over vehicle controls
Longest Sleep Bout, Adj. Mean (Wistar rats; 0.05 mg/kg PO): 1.4 n-fold increase over vehicle controls
Cumulative NREM sleep, Adj. Mean (Wistar rats; 0.05 mg/kg PO): 23.4 min
Cumulative Total sleep, Adj. Mean (Wistar rats; 0.05 mg/kg PO): 25.3 min
Locomotor Activity Intensity, Adj. Mean (Wistar rats; 0.05 mg/kg PO): −0.3 LMA counts per minute of EEG-defined wakefulness
Rebound Insomnia, Adj. Mean (Wistar rats; 0.1 mg/kg PO): -3.7 min
REM inhibition, Adj. Mean (Wistar rats; 0.1 mg/kg PO): 4.9 min
Average Sleep Bout, Adj. Mean (Wistar rats; 0.1 mg/kg PO): 1.7 n-fold increase over vehicle controls
Longest Sleep Bout, Adj. Mean (Wistar rats; 0.1 mg/kg PO): 1.5 n-fold increase over vehicle controls
Cumulative NREM sleep, Adj. Mean (Wistar rats; 0.1 mg/kg PO): 26.7 min
Cumulative Total sleep, Adj. Mean (Wistar rats; 0.1 mg/kg PO): 28.7 min
Locomotor Activity Intensity, Adj. Mean (Wistar rats; 0.1 mg/kg PO): 0.1 LMA counts per minute of EEG-defined wakefulness
Rebound Insomnia, Adj. Mean (Wistar rats; 0.25 mg/kg PO): -2.2 min
REM inhibition, Adj. Mean (Wistar rats; 0.25 mg/kg PO): 2.0 min
Average Sleep Bout, Adj. Mean (Wistar rats; 0.25 mg/kg PO): 2.1 n-fold increase over vehicle controls
Longest Sleep Bout, Adj. Mean (Wistar rats; 0.25 mg/kg PO): 2.0 n-fold increase over vehicle controls
Cumulative NREM sleep, Adj. Mean (Wistar rats; 0.25 mg/kg PO): 37.9 min
Cumulative Total sleep, Adj. Mean (Wistar rats; 0.25 mg/kg PO): 38.9 min
Locomotor Activity Intensity, Adj. Mean (Wistar rats; 0.25 mg/kg PO): −0.7 LMA counts per minute of EEG-defined wakefulness
Rebound Insomnia, Adj. Mean (Wistar rats; 0.5 mg/kg PO): -5.0 min
REM inhibition, Adj. Mean (Wistar rats; 0.5 mg/kg PO): 0.4 min
Average Sleep Bout, Adj. Mean (Wistar rats; 0.5 mg/kg PO): 1.8 n-fold increase over vehicle controls
Longest Sleep Bout, Adj. Mean (Wistar rats; 0.5 mg/kg PO): 2.2 n-fold increase over vehicle controls
Cumulative NREM sleep, Adj. Mean (Wistar rats; 0.5 mg/kg PO): 32.9 min
Cumulative Total sleep, Adj. Mean (Wistar rats; 0.5 mg/kg PO): 30.9 min
Locomotor Activity Intensity, Adj. Mean (Wistar rats; 0.5 mg/kg PO): 0.6 LMA counts per minute of EEG-defined wakefulness
Rebound Insomnia, Adj. Mean (Wistar rats; 1 mg/kg PO): 1.6 min
REM inhibition, Adj. Mean (Wistar rats; 1 mg/kg PO): -0.1 min
Average Sleep Bout, Adj. Mean (Wistar rats; 1 mg/kg PO): 1.7 n-fold increase over vehicle controls
Longest Sleep Bout, Adj. Mean (Wistar rats; 1 mg/kg PO): 2.0 n-fold increase over vehicle controls
Cumulative NREM sleep, Adj. Mean (Wistar rats; 1 mg/kg PO): 34.0 min
Cumulative Total sleep, Adj. Mean (Wistar rats; 1 mg/kg PO): 33.6 min
Locomotor Activity Intensity, Adj. Mean (Wistar rats; 1 mg/kg PO): −1.6 LMA counts per minute of EEG-defined wakefulness
Rebound Insomnia, Adj. Mean (Wistar rats; 3 mg/kg PO): 0.3 min
REM inhibition, Adj. Mean (Wistar rats; 3 mg/kg PO): -4.6 min
Average Sleep Bout, Adj. Mean (Wistar rats; 3 mg/kg PO): 2.0 n-fold increase over vehicle controls
Longest Sleep Bout, Adj. Mean (Wistar rats; 3 mg/kg PO): 2.7 n-fold increase over vehicle controls
Cumulative NREM sleep, Adj. Mean (Wistar rats; 3 mg/kg PO): 31.7 min
Cumulative Total sleep, Adj. Mean (Wistar rats; 3 mg/kg PO): 29.7 min
Locomotor Activity Intensity, Adj. Mean (Wistar rats; 3 mg/kg PO): −3.1 LMA counts per minute of EEG-defined wakefulness
Rebound Insomnia, Adj. Mean (Wistar rats; 10 mg/kg PO): -3.1 min
REM inhibition, Adj. Mean (Wistar rats; 10 mg/kg PO): -9.4 min
Average Sleep Bout, Adj. Mean (Wistar rats; 10 mg/kg PO): 2.0 n-fold increase over vehicle controls
Longest Sleep Bout, Adj. Mean (Wistar rats; 10 mg/kg PO): 2.3 n-fold increase over vehicle controls
Cumulative NREM sleep, Adj. Mean (Wistar rats; 10 mg/kg PO): 29.1 min
Cumulative Total sleep, Adj. Mean (Wistar rats; 10 mg/kg PO): 26.5 min
Locomotor Activity Intensity, Adj. Mean (Wistar rats; 10 mg/kg PO): −1.9 LMA counts per minute of EEG-defined wakefulness
change in awake time following treatment (dose response curve, FIG. 2) (Wistar rats; rat): does not result in rebound insomnia
change in cumulative REM sleep time (dose response curve, FIG. 1) (Wistar rats; rat): does not inhibit REM sleep
change in distances moved during periods of wakefulness (dose response curve, FIG. 3) (Wistar rats; rat): does not inhibit or stimulate normal activity
Estimated efficacy dose, NREM accumulation = 30 min. (Wistar rats; [7]): 0.09 mg/kg
Estimated efficacy dose, average sleep bout (1.5-fold increase) (Wistar rats; [7]): 0.04 mg/kg
Estimated efficacy dose, longest sleep bout (1.75-fold increase) (Wistar rats; [7]): 0.12 mg/kg
Estimated efficacy dose, total sleep accumulation = 25 min. (Wistar rats; [7]): 0.05 mg/kg
REM sleep inhibition (Wistar rats; rat, at 3 mg/kg): without significant
cumulative NREM sleep time (Wistar rats; rat, at 3 mg/kg): significantly increase
cumulative total sleep time (Wistar rats; rat, at 3 mg/kg): significantly increase
inhibition of locomotor intensity (LMI) (Wistar rats; rat, at 3 mg/kg): without significant
rebound insomnia (Wistar rats; rat, at 3 mg/kg): without significant rebound insomnia
NREM sleep (Wistar rats; rat, coadministered with citalopram): significantly increase NREM sleep at significantly lower doses
EC50 (5-HT2B [5]): > 10 µM
Kb (5-HT2B [6]): 0.0786 µM
